The numbers were not newly measured in patent publication US12138350B2, “Method of producing a extruded composition” (Cubic Pharmaceuticals Ltd., priority 2015, dated 2024), which cites them from elsewhere.

The conditions of the data set: Ramukutty and Ramachandran 2014.

The structures appear in SMILES notation.

`CC(C)Cc1ccc(C(C)C(=O)O)cc1` (racemic) [Ibuprofen, (RS)-2-(4-(2-methylpropyl)phenyl)propanoic acid]: the “Temperature up to which stable” value is “about 152 °C”.
